Results as given in ChEMBL document CHEMBL1145654, “Phototoxic and Insecticidal Activities of Chromenes and Benzofurans from Encelia” (J Nat Prod, 1983).
Active and inactive are the calls of the source. The rule behind the calls is not given here.

Legend:
Assay type in all cases: functional, organism-based
Saccharomyces cerevisiae = test: Phototoxicity in 2 hrs UV irradiated Saccharomyces cerevisiae measured after 24 hrs
Bacillus subtilis = test: Phototoxicity in 2 hrs UV irradiated Bacillus subtilis measured after 24 hrs
Staphylococcus = test: Phototoxicity in 2 hrs UV irradiated Staphylococcus albus measured after 24 hrs
Candida albicans = test: Phototoxicity in 2 hrs UV irradiated Candida albicans measured after 24 hrs
Escherichia coli = test: Phototoxicity in 2 hrs UV irradiated Escherichia coli measured after 24 hrs
Pseudomonas fluorescens = test: Phototoxicity in 2 hrs UV irradiated Pseudomonas fluorescens measured after 24 hrs
Oncopeltus fasciatus [1] = test: Antijuvenile hormone activity in first instar Oncopeltus fasciatus larvae at 5 mg to 100 ug/petri dish
Oncopeltus fasciatus [2] = test: Insecticidal activity in first instar Oncopeltus fasciatus larvae at 1.2 mg/petri dish after 3 to 4 days
Oncopeltus fasciatus [3] = test: Insecticidal activity in first instar Oncopeltus fasciatus larvae at 5 mg/petri dish

With `COc1cc2c(cc1OC)OC(C)(C)C=C2` the Activity (Saccharomyces cerevisiae) was “inactive”, the Activity (Bacillus subtilis) was “inactive” and the Activity (Staphylococcus) was “inactive”. For the same molecule, the Activity (Candida albicans) was “inactive”, the Activity (Escherichia coli) was “inactive” and the Activity (Pseudomonas fluorescens) was “inactive”. The Activity (Oncopeltus fasciatus [1]) was “inactive”.
In the case of `COc1ccc2c(c1)OC(C)(C)C=C2`, the Activity (Saccharomyces cerevisiae) is reported as “inactive”, the Activity (Bacillus subtilis) is reported as “inactive” and the Activity (Staphylococcus) is reported as “inactive”. The Activity (Candida albicans) was “inactive”, the Activity (Escherichia coli) was “inactive” and the Activity (Pseudomonas fluorescens) was “inactive”. For the same molecule, the Activity (Oncopeltus fasciatus [1]) was “inactive”.
`COc1cc2c(cc1C(C)=O)C=CC(C)(C)O2` was tested, and the Activity (Saccharomyces cerevisiae) was “Active”, the Activity (Bacillus subtilis) was “Active” and the Activity (Staphylococcus) was “inactive”. For the same molecule, the Activity (Candida albicans) was “Active”, the Activity (Oncopeltus fasciatus [2]) was “Active” and the Activity (Escherichia coli) was “inactive”. The Activity (Pseudomonas fluorescens) was “inactive” and the Activity (Oncopeltus fasciatus [1]) was “inactive”.
In the case of `COc1c2occc2cc2ccc(=O)oc12`, the Activity (Saccharomyces cerevisiae) is reported as “Active”, the Activity (Bacillus subtilis) is reported as “Active” and the Activity (Staphylococcus) is reported as “Active”. The Activity (Candida albicans) was “Active”, the Activity (Escherichia coli) was “Active” and the Activity (Pseudomonas fluorescens) was “inactive”.
In the case of `C=C(C)c1cc2cc(C(C)=O)c(OC)cc2o1`, the Activity (Saccharomyces cerevisiae) is reported as “Active”, the Activity (Bacillus subtilis) is reported as “Active” and the Activity (Staphylococcus) is reported as “inactive”. For the same molecule, the Activity (Candida albicans) was “Active”, the Activity (Escherichia coli) was “inactive” and the Activity (Pseudomonas fluorescens) was “Active”.
With `CC(=O)c1cc2c(cc1O)OC(C)(C)C=C2` the Activity (Saccharomyces cerevisiae) was “Active”, the Activity (Bacillus subtilis) was “Active” and the Activity (Staphylococcus) was “inactive”. For the same molecule, the Activity (Candida albicans) was “Active”, the Activity (Oncopeltus fasciatus [3]) was “Active” and the Activity (Escherichia coli) was “inactive”. For the same molecule, the Activity (Pseudomonas fluorescens) was “inactive” and the Activity (Oncopeltus fasciatus [1]) was “inactive”.
With `C=C(C)c1cc2cc(C(C)=O)c(O)cc2o1` the Activity (Saccharomyces cerevisiae) was “inactive”, the Activity (Bacillus subtilis) was “inactive” and the Activity (Staphylococcus) was “inactive”. For the same molecule, the Activity (Candida albicans) was “inactive”, the Activity (Escherichia coli) was “inactive” and the Activity (Pseudomonas fluorescens) was “inactive”. The Activity (Oncopeltus fasciatus [1]) was “inactive”.
For `COc1cc2c(cc1[C@](C)(O)CC(C)c1cc3cc(C(C)=O)c(O)cc3o1)C=CC(C)(C)O2` (stereo not given in full), the Activity (Saccharomyces cerevisiae) was “inactive”, the Activity (Bacillus subtilis) was “inactive” and the Activity (Staphylococcus) was “inactive”. The Activity (Candida albicans) was “inactive”, the Activity (Escherichia coli) was “inactive” and the Activity (Pseudomonas fluorescens) was “inactive”.
